From patent publication US9029325B2, “Amylin analogues and pharmaceutical compositions thereof” (Novo Nordisk A/S, priority 2011, dated 2015)
Starred links: 1 amine or outer side, 2 acyl side, 3 side chain; linkers in the order of their positions; H or OH if unused. Positions of bridges follow the written chain, without caps; N, C: chain ends. Residues, ends and D or L forms follow the SMILES beside them. *: point of attachment. C20 diacid = O=C(O)CCCCCCCCCCCCCCCCCCC(=O)*; γGlu = O=C(O)[C@H](CCC(=O)[*:2])N[*:1]

Assay: Assay (III) ThT fibrillation assay for physical stability
Format: physicochemical
Settings: for Th T pH 4.0 lag time (h): 37° C., orbital shaking 960 rpm; for ThT pH 4.0 lag time: Table 9
Description: Low physical stability of a polypeptide may lead to amyloid fibril formation, which is observed as well-ordered, thread-like macromolecular structures in the sample eventually resulting in gel formation. This has traditionally been measured by visual inspection of the sample. However, that kind of measurement is very subjective and depending on the observer. Therefore, the application of a small molecule indicator probe is much more advantageous. Thioflavin T (ThT) is such a probe and has a distinct fluorescence signature when binding to fibrils [Naiki et al. (1989) Anal. Biochem. 177, 244-249; LeVine (1999) Methods. Enzymol. […], 274-284].
The time course for fibril formation can be described by a sigmoidal curve with the following expression [Nielsen et al. (2001) Biochemistry 40, 6036-6046]:
[formula] Here, F is the ThT fluorescence at the time t. The constant t0 is the time needed to reach 50% of maximum fluorescence. The two important parameters describing fibril formation are the lag-time calculated by t0−2T and the apparent rate constant kapp=1/τ.
Few of those intermediates nucleate to form a template onto which further intermediates may assembly and the fibrillation proceeds. The lag-time corresponds to the interval in which the critical mass of nucleus is built up and the apparent rate constant is the rate with which the fibril itself is formed.
Samples were prepared freshly before each assay. Each sample composition is described in each example. The pH of the sample was adjusted to the desired value using appropriate amounts of concentrated NaOH and HClO4 or HCl. Thioflavin T was added to the samples from a stock solution in H2O to a final concentration of 1 μM.
Sample aliquots of 200 μl were placed in a 96 well microtiter plate (Packard OptiPlate™-96, white polystyrene). Usually, four or eight replica of each sample (corresponding to one test condition) were placed in one column of wells. The plate was sealed with Scotch Pad (Qiagen).
Incubation at given temperature, shaking and measurement of the ThT fluorescence emission were done in a Fluoroskan Ascent FL fluorescence platereader or Varioskan platereader (Thermo Labsystems). The temperature was adjusted to 37° C. The orbital shaking was adjusted to 960 rpm with an amplitude of 1 mm in all the presented data. Fluorescence measurement was done using excitation through a 444 nm filter and measurement of emission through a 485 nm filter.
Each run was initiated by incubating the plate at the assay temperature for 10 min. The plate was measured every 20 minutes for a desired period of time. Between each measurement, the plate was shaken and heated as described.
The measurement points were saved in Microsoft Excel format for further processing and curve drawing and fitting was performed using GraphPad Prism. The background emission from ThT in the absence of fibrils was negligible. The data points are typically a mean of four or eight samples and shown with standard deviation error bars. Only data obtained in the same experiment (i.e. samples on the same plate) are presented in the same graph ensuring a relative measure of fibrillation […].
The data set may be fitted to Eq. (1). However, since full sigmodial curves in this case are not always achieved during the measurement time, the degree of fibrillation is expressed as ThT fluorescence tabulated as the mean of the samples and shown with the standard deviation at various time points.
The polypeptide concentration in each of the tested formulations were measured both before application in the ThT fibrillation assay (“Initial”) and after completion of the ThT fibrillation (“After ThT assay”). Concentrations were determined by reverse HPLC methods using a pramlintide standard as a reference. Before measurement after completion 150 μl was collected from each of the replica and transferred to an Eppendorf tube. These were centrifuged at 30000 G for 40 mins. […]

SMILES | Th T pH 4.0 lag time (h) | ThT pH 4.0 lag time [hr]
CC[C@H](C)[C@H](NC(=O)[C@@H]1CCCN1C(=O)CNC(=O)[C@H](Cc1ccccc1)NC(=O)[C@H](CC(N)=O)NC(=O)[C@H](CCC(N)=O)NC(=O)[C@H](CO)NC(=O)[C@H](CO)NC(=O)[C@H](Cc1c[nH]cn1)NC(=O)[C@H](CCCNC(=N)N)NC(=O)[C@H](CC(C)C)NC(=O)[C@H](Cc1ccccc1)NC(=O)[C@H](CCC(=O)O)NC(=O)[C@H](C)NC(=O)[C@H](CC(C)C)NC(=O)[C@H](CCCNC(=N)N)NC(=O)[C@H](CCC(N)=O)NC(=O)[C@@H](NC(=O)[C@H](C)NC(=O)[C@@H]1CSSC[C@H](NC(=O)[C@H](CCC(=O)O)NC(=O)[C@H](CCCNC(=N)N)NC(=O)[C@H](CCC(=O)O)NC(=O)CC[C@H](NC(=O)CCCCCCCCCCCCCCCCCCC(=O)O)C(=O)O)C(=O)N[C@@H](CC(N)=O)C(=O)N[C@@H]([C@@H](C)O)C(=O)N[C@@H](C)C(=O)N[C@@H]([C@@H](C)O)C(=O)N1)[C@@H](C)O)C(=O)N[C@@H](CC(C)C)C(=O)N1CCC[C@H]1C(=O)N1CCC[C@H]1C(=O)N[C@H](C(=O)N[C@@H](CC(N)=O)C(=O)N[C@H](C(=O)NCC(=O)N[C@@H](CO)C(=O)N[C@@H](CC(N)=O)C(=O)N[C@H](C(=O)N1CCC[C@H]1C(N)=O)[C@@H](C)O)C(C)C)[C@@H](C)O [Example 161, N-alpha-[(S)-4-Carboxy-4-(19-carboxynonadecanoylamino)butyryl]-Glu-Arg-[Glu1, Glu14, Arg17, Gln21, Pro37]-pramlintide] ({C20 diacid-γGlu}-ERECNTATCATQRLAEFLRHSSQNFGPILPPTNVGSNTP-NH2; disulfide 4-9 (inferred); C-terminus assumed) | >45 | >45
CC[C@H](C)[C@H](NC(=O)[C@@H]1CCCN1C(=O)CNC(=O)[C@H](Cc1ccccc1)NC(=O)[C@H](CC(N)=O)NC(=O)[C@H](CCC(N)=O)NC(=O)[C@H](CO)NC(=O)[C@H](CO)NC(=O)[C@H](Cc1c[nH]cn1)NC(=O)[C@H](Cc1c[nH]cn1)NC(=O)[C@H](CC(C)C)NC(=O)[C@H](Cc1ccccc1)NC(=O)[C@H](CCC(=O)O)NC(=O)[C@H](C)NC(=O)[C@H](CC(C)C)NC(=O)[C@H](CCCNC(=N)N)NC(=O)[C@H](CCC(N)=O)NC(=O)[C@@H](NC(=O)[C@H](C)NC(=O)[C@@H]1CSSC[C@H](NC(=O)CNC(=O)CC[C@H](NC(=O)CCCCCCCCCCCCCCCCCCC(=O)O)C(=O)O)C(=O)N[C@@H](CC(N)=O)C(=O)N[C@@H]([C@@H](C)O)C(=O)N[C@@H](C)C(=O)N[C@@H]([C@@H](C)O)C(=O)N1)[C@@H](C)O)C(=O)N[C@@H](CC(C)C)C(=O)N1CCC[C@H]1C(=O)N1CCC[C@H]1C(=O)N[C@H](C(=O)N[C@@H](CC(N)=O)C(=O)N[C@H](C(=O)NCC(=O)N[C@@H](CO)C(=O)N[C@@H](CCC(N)=O)C(=O)N[C@H](C(=O)N1CCC[C@H]1C(N)=O)[C@@H](C)O)C(C)C)[C@@H](C)O [Example 137, N-alpha-[(S)-4-Carboxy-4-(19-carboxynonadecanoylamino)butyryl]-[Gly1, Glu14, His17, Gln21, Gln35, Pro37]-pramlintide] ({C20 diacid-γGlu}-GCNTATCATQRLAEFLHHSSQNFGPILPPTNVGSQTP-NH2; disulfide 2-7) | 29 | 
CC[C@H](C)[C@H](NC(=O)[C@@H]1CCCN1C(=O)CNC(=O)[C@H](Cc1ccccc1)NC(=O)[C@H](CC(N)=O)NC(=O)[C@H](CC(N)=O)NC(=O)[C@H](CO)NC(=O)[C@H](CO)NC(=O)[C@H](Cc1c[nH]cn1)NC(=O)[C@H](CCCNC(=N)N)NC(=O)[C@H](CC(C)C)NC(=O)[C@H](Cc1ccccc1)NC(=O)[C@H](CCC(=O)O)NC(=O)[C@H](C)NC(=O)[C@H](CC(C)C)NC(=O)[C@H](CCCNC(=N)N)NC(=O)[C@H](CCC(N)=O)NC(=O)[C@@H](NC(=O)[C@H](C)NC(=O)[C@@H]1CSSC[C@H](NC(=O)CNC(=O)CC[C@H](NC(=O)CCCCCCCCCCCCCCCCCCC(=O)O)C(=O)O)C(=O)N[C@@H](CC(N)=O)C(=O)N[C@@H]([C@@H](C)O)C(=O)N[C@@H](C)C(=O)N[C@@H]([C@@H](C)O)C(=O)N1)[C@@H](C)O)C(=O)N[C@@H](CC(C)C)C(=O)N1CCC[C@H]1C(=O)N1CCC[C@H]1C(=O)N[C@H](C(=O)N[C@@H](CC(N)=O)C(=O)N[C@H](C(=O)NCC(=O)N[C@@H](CO)C(=O)N[C@@H](CC(N)=O)C(=O)N[C@H](C(=O)N1CCC[C@H]1C(N)=O)[C@@H](C)O)C(C)C)[C@@H](C)O [Example 88, N-alpha-[(S)-4-Carboxy-4-(19-carboxynonadecanoylamino)butyryl]-[Gly1, Glu14, Arg17, Pro37]-pramlintide] ({C20 diacid-γGlu}-GCNTATCATQRLAEFLRHSSNNFGPILPPTNVGSNTP-NH2; disulfide 2-7 (inferred); C-terminus assumed) | >45 | >45
CC[C@H](C)[C@H](NC(=O)[C@@H]1CCCN1C(=O)CNC(=O)[C@H](Cc1ccccc1)NC(=O)[C@H](CC(N)=O)NC(=O)[C@H](CCC(N)=O)NC(=O)[C@H](CO)NC(=O)[C@H](CO)NC(=O)[C@H](Cc1c[nH]cn1)NC(=O)[C@H](CCCNC(=N)N)NC(=O)[C@H](CC(C)C)NC(=O)[C@H](Cc1ccccc1)NC(=O)[C@H](CCC(=O)O)NC(=O)[C@H](C)NC(=O)[C@H](CC(C)C)NC(=O)[C@H](CCCNC(=N)N)NC(=O)[C@H](CCC(N)=O)NC(=O)[C@@H](NC(=O)[C@H](C)NC(=O)[C@@H]1CSSC[C@H](NC(=O)[C@H](CCC(=O)O)NC(=O)[C@H](CCCNC(=N)N)NC(=O)[C@H](CCC(=O)O)NC(=O)CC[C@H](NC(=O)CCCCCCCCCCCCCCCCCCC(=O)O)C(=O)O)C(=O)N[C@@H](CC(N)=O)C(=O)N[C@@H]([C@@H](C)O)C(=O)N[C@@H](C)C(=O)N[C@@H]([C@@H](C)O)C(=O)N1)[C@@H](C)O)C(=O)N[C@@H](CC(C)C)C(=O)N1CCC[C@H]1C(=O)N1CCC[C@H]1C(=O)N[C@H](C(=O)N[C@@H](CC(N)=O)C(=O)N[C@H](C(=O)NCC(=O)N[C@@H](CO)C(=O)N[C@@H](CCC(N)=O)C(=O)N[C@H](C(=O)N1CCC[C@H]1C(N)=O)[C@@H](C)O)C(C)C)[C@@H](C)O [Example 162, N-alpha-[(S)-4-Carboxy-4-(19-carboxynonadecanoylamino)butyryl]-Glu-Arg-[Glu1, Glu14, Arg17, Gln21, Gln35, Pro37]-pramlintide] ({C20 diacid-γGlu}-ERECNTATCATQRLAEFLRHSSQNFGPILPPTNVGSQTP-NH2; disulfide 4-9) | >45 | >45
CC[C@H](C)[C@H](NC(=O)[C@@H]1CCCN1C(=O)CNC(=O)[C@H](Cc1ccccc1)NC(=O)[C@H](CC(N)=O)NC(=O)[C@H](CC(N)=O)NC(=O)[C@H](CO)NC(=O)[C@H](CO)NC(=O)[C@H](Cc1c[nH]cn1)NC(=O)[C@H](Cc1c[nH]cn1)NC(=O)[C@H](CC(C)C)NC(=O)[C@H](Cc1ccccc1)NC(=O)[C@H](CCC(=O)O)NC(=O)[C@H](C)NC(=O)[C@H](CC(C)C)NC(=O)[C@H](CCCNC(=N)N)NC(=O)[C@H](CCC(N)=O)NC(=O)[C@@H](NC(=O)[C@H](C)NC(=O)[C@@H]1CSSC[C@H](NC(=O)[C@H](CCCCN)NC(=O)CC[C@H](NC(=O)CCCCCCCCCCCCCCCCCCC(=O)O)C(=O)O)C(=O)N[C@@H](CC(N)=O)C(=O)N[C@@H]([C@@H](C)O)C(=O)N[C@@H](C)C(=O)N[C@@H]([C@@H](C)O)C(=O)N1)[C@@H](C)O)C(=O)N[C@@H](CC(C)C)C(=O)N1CCC[C@H]1C(=O)N1CCC[C@H]1C(=O)N[C@H](C(=O)N[C@@H](CC(N)=O)C(=O)N[C@H](C(=O)NCC(=O)N[C@@H](CO)C(=O)N[C@@H](CCC(N)=O)C(=O)N[C@H](C(=O)N1CCC[C@H]1C(N)=O)[C@@H](C)O)C(C)C)[C@@H](C)O [Example 135, N-alpha-[(S)-4-Carboxy-4-(19-carboxynonadecanoylamino)butyryl]-[Glu14, His17, Gln35, Pro37]-pramlintide] ({C20 diacid-γGlu}-KCNTATCATQRLAEFLHHSSNNFGPILPPTNVGSQTP-NH2; disulfide 2-7) | >45 | >45
